Results from US20100189811A1, “Biocide compositions comprising 3-methylisothiazolin-3-one and a haloalkyl sulphone” (THOR GmbH, priority 2009, published 2010).

Legend:
[1] = test system: Pseudomonas aeruginosa (ATCC 9027); experiment: Minimum inhibitory concentration and synergy index in nutrient agar, visual test for growth; type: cell-based; conditions: 48 hours at 30° C.; for Synergy index Qa/QA + Qb/QB: method of Kull et al.
Procedure: (§1) The synergism of a combination of MIT with diiodomethyl p-tolyl sulphone was tested. Test organisms used were the Gram-negative bacterium Pseudomonas aeruginosa (ATCC 9027) and the mould Aspergillus niger (ATCC16404). For the purpose of the test, mixtures containing different concentrations of MIT and diiodomethyl p-tolyl sulphone were prepared and tested for their action on Pseudomonas aeruginosa and Aspergillus niger respectively. The active compound mixtures in the corresponding concentrations were introduced into selective nutrient media (nutrient agar for Pseudomonas aeruginosa and Sabouraud glucose agar for Aspergillus niger) and the test organisms were likewise incorporated into the agar. The cell density in the agar was in each case 10^6 microbes per ml in the case of Pseudomonas aeruginosa and 10^5 spores per ml in for Aspergillus niger.
(§2) The incubation time is 48 hours (bacteria) or 72 hours (moulds) at 30° C. and 25° C. respectively. This was followed by visual testing for growth of Pseudomonas aeruginosa and Aspergillus niger. In the case of Pseudomonas aeruginosa, growth was apparent by hazing or greenish coloration of the nutrient medium, or by formation of colonies on the surface of the agar. In the case of Aspergillus niger, the growth was apparent through the formation of colonies or mycelia on the surface of the agar. In this way the minimum inhibitory concentrations (MICs) of the two active compounds were determined, individually and in combination. The MIC is the concentration at which there is no longer any hazing, colouring of the agar or colony formation on the surface of the agar (Pseudomonas aeruginosa) and no formation of colonies or mycelia on the surface of the agar (Aspergillus niger).
(§3) The synergism that occurred was presented numerically by calculation of the synergy index (SI). This calculation was made using the common method of F. C. Kull et al., Applied Microbiology, vol. 9 (1961), p. 538. SI is calculated there in accordance with the following formula:
(§4) Synergy index SI=Qa/QA+Qb/QB
(§5) In the application of this formula to the MIT+DIMTS biocide system tested here, the variables in the formula have the following definition:
(§6) Qa=concentration of MIT in the mixture of diiodomethyl p-tolyl sulphone+MIT QA=concentration of MIT as sole biocide Qb=concentration of diiodomethyl p-tolyl sulphone in the biocide mixture QB=concentration of diiodomethyl p-tolyl sulphone as sole biocide
(§7) If the synergy index has a value of more than 1, this means that there is an antagonism.
(§8) If the synergy index adopts a value of 1, this means that the action of the two biocides is additive. If the synergy index takes on a value of below 1, this means that there is synergism of the two biocides.

[2] = test system: Aspergillus niger (ATCC16404); experiment: Minimum inhibitory concentration and synergy index in Sabouraud glucose agar, visual test for growth; type: cell-based; conditions: 72 hours at 25° C.; for Synergy index Qa/QA + Qb/QB: method of Kull et al.
Procedure: as §1, §2, §3, §4, §5, §6, §7, §8

[3] = concentration of MIT (sole or in the mixture) which shows an endpoint
[4] = concentration of DIMTS (sole or in the mixture) that shows an endpoint

Row | Compound | Synergy index Qa/QA + Qb/QB [1] | MHK Qa (MIT) [1, 3] [ppm] | Synergy index Qa/QA + Qb/QB [2] | MHK Qa (MIT) [2, 3] [ppm] | MHK Qb (DIMTS) [1, 4] [ppm] | MHK Qb (DIMTS) [2, 4] [ppm]
1 | Cn1sccc1=O [MIT, 2-methylisothiazolin-3-one] | 1.00 | 40 | 1.00 | 800 |  | 
2 | Cc1ccc(S(=O)(=O)C(I)I)cc1 [DIMTS, diiodomethyl p-tolyl sulphone] | 1.00 |  | 1.00 |  | 1250 | 10
